Experimental data from US6884906B2, “Menthyl half acid ester derivatives, processes for preparing same, and uses thereof for their cooling/refreshing effect in consumable materials” (International Flavors & Fragrances Inc., priority 2003, dated 2005).

Legend:
Type in all cases: in vivo
oral cavity [1] = experiment: Flavor and sensory characteristics at use level of 25 ppm in water
oral cavity [2] = experiment: Sensory evaluation in cherry-flavored hard candy; conditions: 0.2 grams added to recipe yielding 200 grams of hard candy; versus control candy
Method: The following formulation was prepared: […]
The above formulation was added to a stainless steel pot. With constant mixing, the formulation temperature was raised to 295° F. The pot was then removed from the heat, and 0.3 grams of cherry flavor containing the ingredients in equal amounts benzaldehyde, tolyl aldehyde, ethyl acetate, maltol, Davana oil and methyl heptinyl carbonate and 1.2 grams of citric acid was added. The resulting liquid candy was then deposited into molds, and the molds containing the liquid candy were cooled to room temperature, yielding 200 grams of finished hard candy. […] A second candy sample was prepared using the above recipe modified by the addition of 0.2 grams of menthyl succinamide prepared according to the procedure of Example I (A).

oral cavity [3] = experiment: Sensory evaluation in fruity citrus chewing gum; conditions: 1 part by weight added to gum of 100 parts chicle, 4 parts flavor, 300 parts sucrose, 100 parts corn syrup; versus control gum
Method: 100 parts by weight of chicle were mixed with 4 parts by weight of a fruity citrus gum flavor which was a blend of lemon oil, ethyl butyrate, ethyl acetate, benzaldehyde, citral and alpha ionone in equal portions. To the resulting mixture, 300 parts by weight of sucrose and 100 parts by weight of corn syrup were added. Mixing was effected in a ribbon blender with jacketed sidewalls, manufactured by Baker Perkins Co. The resultant chewing gum blend was then manufactured into strips 1 inch in width and 0.1 inches in thickness. These strips were cut into lengths of 3 inches each. […] A second gum sample was prepared using the above recipe with the addition of 1 part by weight of menthyl N,N-dimethyl succinamide, prepared according to Example I(C).

| Compound | Cooling Duration (oral cavity [1]) [min] | Onset Time (oral cavity [1]) [s] | cooling effect in hard candy (oral cavity [2]) | cooling effect in chewing gum (oral cavity [3]) |
| --- | --- | --- | --- | --- |
| CC(C)[C@@H]1CC[C@@H](C)C[C@H]1OC(=O)CCC(N)=O [Example I(A), Butanoic acid, 4-amino-4-oxo, (5-methyl-2-(1-methylethyl)cyclohexyl)ester, (1R-(1α,2β,5α))-] | 7.5 | 8 to 25 | moderately strong and substantive cooling effect |  |
| CNC(=O)CCC(=O)O[C@@H]1C[C@H](C)CC[C@H]1C(C)C [Example I(B), Butanoic acid, 4-methylamino-4-oxo, (5-methyl-2-(1-methylethyl)cyclohexyl)ester, (1R-(1α,2β,5α))] | 7 | 15 to 25 |  |  |
| CC(C)[C@@H]1CC[C@@H](C)C[C@H]1OC(=O)CCC(=O)N(C)C [Example I(C), Butanoic acid, 4-dimethylamino-4-oxo, (5-methyl-2-(1-methylethyl)cyclohexyl)ester, (1R-(1α,2β,5α))-] | 11.25 | 25 |  | pleasant and substantive cooling effect on the tongue and roof of the mouth |
| CC(C)[C@@H]1CC[C@@H](C)C[C@H]1OC(=O)CCC(=O)NCCO [Example I(E), Butanoic acid, 4-(2-hydroxyethyl)amino-4-oxo, (5-methyl-2-(1-methylethyl)cyclohexyl) ester, (1R-(1α,2β,5α))-] | 15 | 11 |  |  |
| CC(C)[C@@H]1CC[C@@H](C)C[C@H]1OC(=O)CCCCC(=O)O [Example I(I), Hexanedioic acid, mono(5-methyl-2-(1-methylethyl)cyclohexyl) ester, (1R-(1α,2β,5α))-] | 10.5 | 34 |  |  |
| CCNC(=O)CCC(=O)O[C@@H]1C[C@H](C)CC[C@H]1C(C)C [I(D), Butanoic acid, 4-ethylamino-4-oxo, (5-methyl-2-(1-methylethyl)cyclohexyl)ester, (1R-(1α,2β,5α))-] | 7 | 35 |  |  |
| Pentanoic acid, 4-methylamino-4-oxo, (5-methyl-2-(1-methylethyl)cyclohexyl) ester, (1R-(1α,2β,5α))- [Example I(G)] | 5 | 20 |  |  |
